Results from patent publication US10106540B2, “HDAC6 inhibitors and their uses” (Universität Regensburg, priority 2014, dated 2018).

System: BV-173 cells
Assay: Flow cytometric analysis of BV-173 cells, combination with imatinib
Assay type: cell-based, human
Conditions: BV-173, 1 μM MARB1 or 2 μM MARB2 combined with 0.2 or 0.5 μM imatinib, 48 h
Protocol: Flow cytometric analysis of the induction of (A) apoptotic DNA fragmentation and (B) Cell cycle analysis of BV 173 cells. The cells were kept as control cells (Ctl), treated with 1 μM or 2 μM MARB1 MARB2 and 0.2 or 0.5 μM imatinib for 48 h. The data was received by two independent experiments. The individual compounds show only slight effects in the used concentrations; whereas their combination can effectively kill leukemic cells. (C) Western blot analysis on data from the BCR-ABL, acetylated tubulin and α-sliced PARP1; the total amount of tubulin-α serves as a loading control. BV-173 cells were treated for 24 h with 1 μM, or 2 μM MARB1 or MARB2.
Human leukemia cell lines BV 173 and K562 with BCR-ABL mutation (Leibniz Institute DSMZ—German Collection of Microorganisms and Cell Cultures, DSMZ Accession Nos: ACC-20 and ACC-10).
The assay is carried out as described in Pietschmann et al., 2012 and Brandl et al. 2012. Briefly, 10^5 cells were fixed in 1 ml 70% EtOH with 0.05% Tween-20 overnight at 4° C. The following day, cells were washed with 3 ml 38 mM sodium citrate, pH 7.4, and incubated for 20 min at 37° C. in 0.5 ml 38 mM sodium citrate, pH 7.4, supplemented with 50 μg/ml propidium iodide and 10 μg/ml RNase-A. DNA contents of the cells were measured by fluorescence-activated cell sorter (FACS). […] Equally, the cell cycle profile can be assessed with this method.

With `CN1C(=O)C2CN(Cc3c2c2ccccc2n3Cc2ccc(C(=O)NO)cc2)C1=O` (stereo not shown) [MARB1, N-Hydroxy-4-((4-methyl-3,5-dioxo-3,4,5,6-tetrahydro-2,6-methano[1,3]diazocino[5,6-b]indol-11(1H)-yl)methyl)benzamide] the “apoptotic and necrotic sub-G1 populations” value was “significantly increases”.
